Source: US11617777B2, “Cytotoxic and anti-mitotic compounds, and methods of using the same” (ZYMEWORKS BC INC., priority 2013, dated 2023)
pEC50: −log10 of the molar value.

Columns and labels:
Jurkat cells [1] = assay: Cytotoxicity assay of SMCC- and LC-SPDP-linked ADCs and free compounds; assay type: cell-based; settings: Homo sapiens
Protocol: (§1) The purified ADCs were then analysed for: total protein content (BCA assay, Pierce microBCA protocol), relative affinity for antigen binding (equilibrium native binding), and selective cytotoxic killing of HER2-positive cells (HCC1954) compared HER2-negative cells (Jurkat).
(§2) On the day prior to adding test articles, HCC1954 cells were added to opaque-walled 96-well tissue culture-treated microtiter plates using complete growth medium at a density of 2500 cells/100 microlitre (uL) of medium. The HCC1954 cells were incubated for one night at 37° C./5% CO2 to allow the cells to attach to the microtiter plate surface. On the day that test articles were added, Jurkat cells are added to separate 96-well microtiter plates at 2500 cells/100 uL using the same growth medium as HCC1954. To compare the ADC killing to that obtained from the free-compounds, the n-acyl sulfonamide compounds were first serially diluted using dimethyl sulfoxide or DMA, and then the prepared dilutions are added to complete growth medium at five-times the final concentration—compounds were then titrated 1:3, eight steps. To test the ADCs, they were diluted directly in growth medium at five-times the final concentration—ADCs were then titrated 1:3, eight steps. A control with no test article present (growth medium alone) was included on each microtiter plate in sextuplicate. The prepared compound/ADC titrations were added (twenty-five uL/well) in triplicate to both the HCC1954 cells and Jurkat cells. The cells and titrations were incubated at 37° C./5% CO2 for three nights. After the incubation, cell viability was measured using CellTiter-Glo® reagent by adding thirty uL of prepared CellTiter-Glo® to each assay well. The assay was incubated for at least twenty minutes in the dark prior to measuring emitted luminescence using a microplate luminometer (500 ms integration time). The collected relative luminescence units (RLU) were converted to % cytotoxicity using the Growth medium alone control mentioned above (% Cytotoxicity=1−[Well RLU/average medium alone control RLU]).

HCC1954 cells [2] = assay: as above; assay type: cell-based; settings: Homo sapiens
Protocol: as §1, §2

HCC1954 cells [3] = assay: Cytotoxicity of compounds, CellTiter-Glo; assay type: cell-based; settings: Homo sapiens
Text: (§3) Cell lines used: Human T-cell leukemia cell line Jurkat (ATCC: TIB-152); HCC1954 (ATCC: CRL. 2338); Human Pancreatic cells lines: AsPC-1 (ATCC: CRL-1682), BxPC-3 (ATCC: CRL.1687), HPAF-II (ATCC: CRL.1997), MiaPaCa2 (ATCC: CRL.1420), PANC-1 (ATCC: CRL.1469), Capan-1 (ATCC: HTB-79), Capan-2 (ATCC: HTB-80) and the Human gastric carcinoma cell line NCI-N87 (ATCC: CRL. 5822); AML-193 (ATCC: CRL.9589), CCRF-CEM (ATCC: CCL-119), DU145 (ATCC: HTB-81), PC-3 (ATCC: CRL.1435), A-431 (ATCC: CRL.1555), HT-29 (ATCC: HTB-38), A-172 (ATCC: CRL.1620), NCI-H358 (ATCC: CRL.5807), A549 (ATCC: CCL-185), Colo-205 (ATCC: CCL-222), MDA-MB-231 (ATCC: HTB-26), OVCAR-3 (ATCC: HTB-161), OV-90 (ATCC: CRL.11732), OE19 (Sigma: 96071721), RT 112/84 (Sigma: 85061106).
(§4) On the day prior to adding compounds, HCC1954 AsPC-1, BxPC-3, HPAF-II, MiaPaCa2, PANC-1, Capan-1, Capan-2 and NCI-N87 cells were added to opaque-walled 96-well tissue culture-treated microtiter plates using complete growth medium at a density of 2500 cells/100 microlitre (uL) of medium. These adherant cell lines cells were incubated for one night at 37° C./5% CO2 to allow the cells to attach to the microtiter plate surface. On the day that compounds were added, Jurkat cells are added to separate 96-well microtiter plates at 2500 cells/100 uL using the same growth medium as HCC1954. Compound were first serially diluted using dimethyl sulfoxide, and then the prepared dilutions are added to complete growth medium at five-times the final concentration—compounds were then titrated 1:3, eight steps. A control with no compound (growth medium alone) was included on each microtiter plate in sextuplicate. The prepared compounds titrations were added (twenty-five uL/well) in triplicate. The cells and compound titrations were incubated at 37° C./5% CO2 for three nights. After the incubation, cell viability is measured using CellTiter-Glo® reagent by adding thirty uL of prepared CellTiter-Glo® to each assay well. The assay is incubated for at least twenty minutes in the dark prior to measuring emitted luminescence using a microplate luminometer (500 ms integration time). The collected relative luminescence units (RLU) are converted to % cytotoxicity using the Growth medium alone control mentioned above (% Cytotoxicity=1−[Well RLU/average medium alone control RLU]).
(§5) GraphPad Prism was used for generation of EC50 values using three parameter non-linear regression curve fitting.

Jurkat cells [4] = assay: Cytotoxicity of compounds, CellTiter-Glo; assay type: cell-based, Human; settings: Homo sapiens, Jurkat
Procedure, shortened: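 HCC1954 plated at 2500 cells/100 uL and attached overnight; Jurkat plated at 2500 cells/100 uL on the day of dosing. Cells exposed to 8-step 1:3 compound titrations for three nights at 37° C./5% CO2, in triplicate. CellTiter-Glo luminescence converted to % cytotoxicity versus medium-only control; EC50 by three-parameter nonlinear regression.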

MiaPaCa2 = assay: Cytotoxicity of compounds, CellTiter-Glo; assay type: cell-based; settings: Homo sapiens, MIA PaCa-2; Table 5; MinPaCa2; read-out: Cytotoxicity (EC50) MinPaCa2
Text: (§6) FIG. 1 summarizes the data for compounds A, B, C, D, and E when tested using the Human mammary carcinoma cell line HCC1954 or Human T-cell leukemia cell line Jurkat. FIGS. 2-6 show the cytotoxicity data plots for individual compounds A-E. Tables 2-6 summarize the results of additional cytotoxicity assays.
as §3, §4, §5

BxPC-3 = assay: Cytotoxicity of compounds, CellTiter-Glo; assay type: cell-based; settings: Homo sapiens, Table 5, read-out: Cytotoxicity (EC50) BxPC-3
Text: as §6, §3, §4, §5

PANC-1 = assay: Cytotoxicity of compounds, CellTiter-Glo; assay type: cell-based; settings: Homo sapiens, Table 5, read-out: Cytotoxicity (EC50) PANC-1
Text: as §6, §3, §4, §5

AsPC-1 = assay: Cytotoxicity of compounds, CellTiter-Glo; assay type: cell-based; settings: Homo sapiens, ASPC1, Table 5, read-out: Cytotoxicity (EC50) AsPC-1
Text: as §6, §3, §4, §5

HPAF-II = assay: Cytotoxicity of compounds, CellTiter-Glo; assay type: cell-based; settings: Homo sapiens, Table 5, read-out: Cytotoxicity (EC50) HPAF-II
Text: as §6, §3, §4, §5

NCI-N87 = assay: Cytotoxicity of compounds, CellTiter-Glo; assay type: cell-based; settings: Homo sapiens, Table 5, read-out: Cytotoxicity (EC50) NCI-N87
Text: as §6, §3, §4, §5

[5] = HCC1954, Table 4, Cytotoxicity of Compounds on HCC-1954 Cells, read-out: EC50
[6] = Table 2, HCC1954, read-out: HCC1954 EC50
[7] = Table 1, Jurkat cells (HER2−), three nights, read-out: Jurkat cells (HER2−) EC50
[8] = Table 3, Cytotoxicity of Compounds on Jurkat Cells, read-out: EC50

Row | Structure (SMILES) | pEC50 (Jurkat cells [1]; Table 9, Coupling #1, read-out: Jurkat Best-fit EC50) | pEC50 (Jurkat cells [1]; Table 10, Coupling #2, read-out: Jurkat Best-fit EC50) | pEC50 (HCC1954 cells [2]; HCC1954, Table 9, Coupling #1, read-out: HCC1954 Best-fit EC50) | pEC50 (HCC1954 cells [2]; HCC1954, Table 10, Coupling #2, read-out: HCC1954 Best-fit EC50) | pEC50 (HCC1954 cells [3]; [5]) | pEC50 (HCC1954 cells [3]; Table 1, HCC1954 cells (HER2+), three nights, read-out: HCC1954 cells (HER2+) EC50) | pEC50 (HCC1954 cells [3]; [6]) | pEC50 (Jurkat cells [4]; [7]) | pEC50 (Jurkat cells [4]; Table 2, read-out: Jurkat EC50) | pEC50 (Jurkat cells [4]; [8]) | pEC50 (MiaPaCa2) | pEC50 (BxPC-3) | pEC50 (PANC-1) | pEC50 (AsPC-1) | pEC50 (HPAF-II) | pEC50 (NCI-N87)
1 | CN[C@H](C(=O)N[C@H](C(=O)N(C)[C@H](/C=C(\C)C(=O)NS(=O)(=O)CCS)C(C)C)C(C)(C)C)C(C)(C)c1ccccc1 [Compound B, (S,E)-N-(2-mercaptoethylsulfonyl)-2,5-dimethyl-4-((S)—N,3,3-trimethyl-2-((S)-3-methyl-2-(methylamino)-3-phenylbutanamido)butanamido)hex-2-enamide] | 8.00 | 7.44 | 8.09 | 8.04 | 7.89 | 8.09 | 7.89 | 7.98 | 7.23 | 7.23 | – | – | – | – | – | –
2 | CN[C@H](C(=O)N[C@H](C(=O)N(C)[C@H](/C=C(\C)C(=O)NS(=O)(=O)c1ccc(C)cc1)C(C)C)C(C)(C)C)C(C)(C)c1ccccc1 [Compound D, (S,E)-2,5-dimethyl-N-tosyl-4-((S)—N,3,3-trimethyl-2-((S)-3-methyl-2-(methylamino)-3-phenylbutanamido)butanamido)hex-2-enamide] | – | – | – | – | 10.22 | – | 10.22 | 10.37 | 10.40 | 10.48 | 9.87 | 10.18 | 9.09 | 9.77 | 9.75 | 9.57
